Data: paper PMC5057115, “Cathelicidins in the Tasmanian devil (Sarcophilus harrisii)” (Scientific Reports, 2016)
Where no end group is shown, it is not given here.

How the values were obtained:
S. agalactiae ATCC 12386 = type: cell-based; settings: broth microdilution (CLSI), 64 to 0.125 μg/mL, 24 h at 35 °C with 5% CO2; ATCC strain
Experimental: (§1) Tissue expression of devil cathelicidin prepropeptides was determined by real-time PCR on a range of secretory, immune, reproductive, gastrointestinal and respiratory tissues, as well as BLAST searches of the milk transcriptome. Opportunistic tissue samples for real-time PCR were collected from Taronga Zoo (Sydney) from devils which were subject to euthanasia due to old age and advanced disease. The mature peptides of all six devil cathelicidins were synthesised by ChinaPeptides Co. Ltd. and their antimicrobial activity against bacterial and fungal pathogens determined by broth microdilution susceptibility assay according to clinical laboratory standards institute guidelines. Antimicrobial activity was expressed as minimum inhibitory concentration (MIC). Cytotoxicity was assessed in the human cell line A549 and haemolytic activity determined against human blood. Statistical significance of peptide effect on cell survival in comparison to the untreated control was calculated using a one sample t-test. Pouch microbiome analysis was performed on swabs from the pouch of lactating and non-lactating devils to detect changes in microbe populations. Pouch swab collection was carried out in accordance with the Save the Tasmanian Devil Program and was approved by the Animal Ethics Committee of the University of Sydney (permit number 681). […]
(§2) base (YNB) for fungi, from a concentration of 64μg/mL to 0.125μg/mL in a final volume of 100 μL .
(§3) Two antibiotics, ampicillin and tetracycline, were included as a positive control for bacteria, and the antifungal drug fluconazole for fungi. A well containing cells and media only was used as a “no drug” control to ensure that cultures grew normally. Bacteria were subcultured on Mueller Hinton agar (MHA) or Sheep blood agar (BA) for 24 hours at 35 °C for Staphylococcus spp., Pseudomonas spp., Enterococcus spp. and E.coli, with 5% CO2 for Streptococcus spp., K.pneumoniae, P.multocida, L.monocytogenes and N.asteroides. Similarly, fungi were subcultured on Sabouraud agar (SAB) at 35 °C for 24 hours prior to the test. Colonies were resuspended in saline and the OD530 measured with a McFarland reader. If necessary the suspension was diluted to 0.45-0.55 McFarland units with saline. Following a 1:150 dilution for bacteria and twostep dilution for fungi (1:50, 1:20), 100 μL of microorganisms (1x106 – 5 x10^5 cells/mL) were pipetted into wells 2-12, the first well acting as a negative control. Colony counts were performed using a 1:1000 dilution for bacteria and 1:10 for fungi spread onto MHA/BA or SAB plates respectively. The 96 well microdilution and agar plates were incubated for 24 hours at 35 °C (Escherichia coli, Staphylococcus spp., Enterococcus spp. and Pseudomonas spp.), with 5% CO2 (Streptococcus spp. Pasteurella multocida, Klebsiella pneumoniae, Listeria monocytogenes a nd Nocardia asteroids) for bacteria, and 35 °C for 48 hours (Candida spp .) or 72 hours (Cryptococcus spp.) for fungi. Assays Antimicrobial activity was expressed as minimum inhibitory concentration (MIC), which was defined as the lowest concentration of cathelicidin preventing visible growth, relative to the negative control. […]
(§4) DMEM and positive control of dimethylsulfoxide (DMSO) (1%) were also included. Following incubation for a further 24 hours, cell viability was determined using alamar blue (Invitrogen) which was added to each well. The plates were incubated for 24 hours, then the absorption measured at 570nm and 620nm using the Victor 3 multilabel plate reader (PerkinElmer). The assay was performed on two separate occasions. To x i city of cathelicidins was calculated according to Invitrogen recommendations and expressed as percentage cell survival compared to the untreated growth control. A significant difference between cathelicidin treated and control cell survival was tested using a o ne sample t-test (p<0.05).
(§5) Haemolytic activity was assessed using 10mL of human blood collected into potassium -ED T A […]
(§6) vacutainers (BD). […]

C. glabrata = type: cell-based; settings: broth microdilution (CLSI), YNB, 64 to 0.125 μg/mL, 48 hours at 35 °C; human clinical isolate
Experimental: as §1, §2, §3, §4, §5, §6

S. lutetiensis = type: cell-based; settings: broth microdilution (CLSI), 64 to 0.125 μg/mL, 24 h at 35 °C with 5% CO2; human clinical isolate
Experimental: as §1, §2, §3, §4, §5, §6

C. albicans = type: cell-based; settings: broth microdilution (CLSI), YNB, 64 to 0.125 μg/mL, 48 hours at 35 °C; human clinical isolate
Experimental: as §1, §2, §3, §4, §5, §6

[1] = system: S. dysgalactiae subs. equisimilis; type: cell-based; settings: broth microdilution (CLSI), 64 to 0.125 μg/mL, 24 h at 35 °C with 5% CO2; human clinical isolate
Experimental: as §1, §2, §3, §4, §5, §6

N. asteroides* = type: cell-based; settings: broth microdilution (CLSI), 64 to 0.125 μg/mL, 24 h at 35 °C with 5% CO2; animal isolate
Experimental: as §1, §2, §3, §4, §5, §6

S. pyogenes ATCC 19615 = type: cell-based; settings: broth microdilution (CLSI), 64 to 0.125 μg/mL, 24 h at 35 °C with 5% CO2; ATCC strain
Experimental: as §1, §2, §3, §4, §5, §6

S. mutans = type: cell-based; settings: broth microdilution (CLSI), 64 to 0.125 μg/mL, 24 h at 35 °C with 5% CO2; human clinical isolate
Experimental: as §1, §2, §3, §4, §5, §6

S. salivarius = type: cell-based; settings: broth microdilution (CLSI), 64 to 0.125 μg/mL, 24 h at 35 °C with 5% CO2; human clinical isolate
Experimental: as §1, §2, §3, §4, §5, §6

S. agalactiae = type: cell-based; settings: broth microdilution (CLSI), 64 to 0.125 μg/mL, 24 h at 35 °C with 5% CO2; human clinical isolate
Experimental: as §1, §2, §3, §4, §5, §6

S. anginosus = type: cell-based; settings: broth microdilution (CLSI), 64 to 0.125 μg/mL, 24 h at 35 °C with 5% CO2; human clinical isolate
Experimental: as §1, §2, §3, §4, §5, §6

S. equi* = type: cell-based; settings: broth microdilution (CLSI), 64 to 0.125 μg/mL, 24 h at 35 °C with 5% CO2; animal isolate
Experimental: as §1, §2, §3, §4, §5, §6

S. oralis/mitis group = type: cell-based; settings: broth microdilution (CLSI), 64 to 0.125 μg/mL, 24 h at 35 °C with 5% CO2; human clinical isolate
Experimental: as §1, §2, §3, §4, §5, §6

S. aureus ATCC 29213 = assay: microbe, parasite or virus in culture; type: cell-based, Staphylococcus aureus; settings: ATCC 29213, 24 h
Experimental: as §1, §2
(§7) Two antibiotics, ampicillin and tetracycline, were included as a positive control for bacteria, and the antifungal drug fluconazole for fungi. A well containing cells and media only was used as a “no drug” control to ensure that cultures grew normally. Bacteria were subcultured on Mueller Hinton agar (MHA) or Sheep blood agar (BA) for 24 hours at 35 °C for Staphylococcus spp., Pseudomonas spp., Enterococcus spp. and E.coli, with 5% CO2 for Streptococcus spp., K.pneumoniae, P.multocida, L.monocytogenes and N.asteroides. Similarly, fungi were subcultured on Sabouraud agar (SAB) at 35 °C for 24 hours prior to the test. Colonies were resuspended in saline and the OD530 measured with a McFarland reader. If necessary the suspension was diluted to 0.45-0.55 McFarland units with saline. […] Assays Antimicrobial activity was expressed as minimum inhibitory concentration (MIC), which was defined as the lowest concentration of cathelicidin preventing visible growth, relative to the negative control. […]
(§8) 570nm and 620nm using the Victor 3 multilabel plate reader (PerkinElmer). […] To x i city of cathelicidins was calculated according to Invitrogen recommendations and expressed as percentage cell survival compared to the untreated growth control. […]
(§9) Haemolytic activity was assessed using 10mL of human blood collected into potassium -ED T A vacutainers (BD). […]

S. aureus = type: cell-based, Staphylococcus aureus; settings: broth microdilution (CLSI), 64 to 0.125 μg/mL, 24 h at 35 °C; human clinical isolate
Experimental: as §1, §2
Two antibiotics, ampicillin and tetracycline, were included as a positive control for bacteria, and the antifungal drug fluconazole for fungi. A well containing cells and media only was used as a “no drug” control to ensure that cultures grew normally. […] Colonies were resuspended in saline and the OD530 measured with a McFarland reader. […] Assays Antimicrobial activity was expressed as minimum inhibitory concentration (MIC), which was defined as the lowest concentration of cathelicidin preventing visible growth, relative to the negative control. […]
as §4, with “The assay was performed on two separate occasions.” left out, “A significant difference between cathelicidin treated and control cell survival was tested using a o ne sample t-test (p<0.05).” left out
as §5

C. gattii = type: cell-based, Cryptococcus gattii; settings: broth microdilution (CLSI), YNB, 64 to 0.125 μg/mL, 72 hours at 35 °C; human clinical isolate
Experimental: as §1, with “t-test.” for “t-test. Pouch microbiome analysis was performed on swabs from the pouch of lactating and non-lactating devils to detect changes in microbe populations. Pouch swab collection was carried out in accordance with the Save the Tasmanian Devil Program and was approved by the Animal Ethics Committee of the University of Sydney (permit number 681).”
(§10) Two antibiotics, ampicillin and tetracycline, were included as a positive control for bacteria, and the antifungal drug fluconazole for fungi. […] Colonies were resuspended in saline and the OD530 measured with a McFarland reader. […] Assays Antimicrobial activity was expressed as minimum inhibitory concentration (MIC), which was defined as the lowest concentration of cathelicidin preventing visible growth, relative to the negative control. […]
as §4, with “The assay was performed on two separate occasions.” left out, “A significant difference between cathelicidin treated and control cell survival was tested using a o ne sample t-test (p<0.05).” left out
as §5

P. multocida* = type: cell-based, Pasteurella multocida; settings: broth microdilution (CLSI), 64 to 0.125 μg/mL, 24 h at 35 °C with 5% CO2; animal isolate
Experimental: as §1, with “t-test.” for “t-test. Pouch microbiome analysis was performed on swabs from the pouch of lactating and non-lactating devils to detect changes in microbe populations. Pouch swab collection was carried out in accordance with the Save the Tasmanian Devil Program and was approved by the Animal Ethics Committee of the University of Sydney (permit number 681).”
as §10
as §4, with “The assay was performed on two separate occasions.” left out, “A significant difference between cathelicidin treated and control cell survival was tested using a o ne sample t-test (p<0.05).” left out
as §5

E. coli ATCC 25922 = assay: microbe, parasite or virus in culture; type: cell-based, Escherichia coli; settings: ATCC 25922, 24 h
Experimental: as §1, §2, §7, §8, §9

Row | Sequence | MIC (S. agalactiae ATCC 12386) [µg/mL] | MIC (C. glabrata) [µg/mL] | MIC (S. lutetiensis) [µg/mL] | MIC (C. albicans) [µg/mL] | MIC [1] [µg/mL] | MIC (N. asteroides*) [µg/mL] | MIC (S. pyogenes ATCC 19615) [µg/mL] | MIC (S. mutans) [µg/mL] | MIC (S. salivarius) [µg/mL] | MIC (S. agalactiae) [µg/mL] | MIC (S. anginosus) [µg/mL] | MIC (S. equi*) [µg/mL] | MIC (S. oralis/mitis group) [µg/mL] | MIC (S. aureus ATCC 29213) [µg/mL] | MIC (S. aureus) [µg/mL] | MIC (C. gattii) [µg/mL] | MIC (P. multocida*) [µg/mL] | MIC (E. coli ATCC 25922) [µg/mL]
1 | KRIGLIRLIGKILRGLRRLG [Saha-CATH5] | 64 | >64 | >64 | >64 | >64 | >64 | 32 | >64 | >64 | 64 | 32 | 64 | 64 | 64 | 64 | 64 | >64 | 32
2 | KRMGIFHLFWAGLRKLGNLIKNKIQQGIENFLG [Saha-CATH3] | >64 | >64 | >64 | >64 | >64 | >64 | >64 | >64 | >64 | >64 | >64 | >64 | >64 | >64 | >64 | >64 | >64 | >64
3 | KRIRFFERIRDRLRDLGNRIKNRIRDFFS [Saha-CATH6] | 64 | >64 | >64 | >64 | >64 | >64 | 64 | >64 | >64 | >64 | 64 | >64 | 64 | >64 | >64 | 64 | >64 | >64
